For data set [1], the system named is OVA-pulsed EL-4 lymphoma cells. As to the kind of experiment: Ex vivo cytotoxicity assay of Tc17 cells. The class given is cell-based, mouse. The conditions noted are these: Tc17 cells differentiated from OT-I T cells with 8-074. As for the experimental part:
The EL4 cells were pulsed using 50 ng/ml OVA257-264 peptide (SIINFEKL) (Sangon Biotech, Shanghai, China) for 2 h at 37 °C and then labeled with 0.25 μM or 2.5 μM of CFSE (carboxyfluorescein succinimidyl ester; Thermo Fisher Scientific, Massachusetts, America) for 10 min at 37 °C. CFSE^l°^w (SIINFEKL loaded target) and CFSE^high (irrelevant peptide control) EL4 cells were mixed at a 1:1 ratio and then co-cultured with Tc17 cells differentiated from OT-I T cells challenged (or not) with 8-074 at 30:1, 10:1, 3:1, and 1:1 effector to target cell ratios (E: T). The frequencies of the CFSE^l°^w and CFSE^high EL4 cells in the CFSE positive fraction were determined using flow cytometric analysis 18 h after incubation, and the percent of the specific killing was calculated. Specific killing (%) = [1 − (Sample ratio) / (Negative control ratio)] × 100; Sample ratio = [CFSE^l°^w(target)/CFSE^high(irrelevant)] value of each sample co-cultured with Tc17 cells; Negative control ratio = [CFSE^l°^w(target) / CFSE^high (irrelevant)] value of EL4 cells not cultured with Tc17 cells.

Data set [2] concerns EL4 cells. Kind of data set: Direct toxicity on tumor cells (apoptosis, CCK-8). The class given is cell-based. The conditions noted are these: even at higher concentrations of 8-074. The procedure:
To exclude the direct cytotoxic killing effect of 8-074 on tumor cells, we conducted an apoptosis assay, a cell proliferation assay, and a cytotoxic toxicity assay on tumor cells upon 8-074 treatment.
Supplementary file 13046_2022_2289_MOESM2_ESM.pdf: Additional file 2: Fig. S2. Selectivity of RORγt agonists in vitro. (a) The activity of 8-074 in Gal4 reporter gene assays with RORα and RORβ. (RORα EC50 > 10 μM, RORβ EC50 > 10 μM). (b) Summary of bioactivity and selectivity profiles for 8-074 using multiple assays. (c) 8-074 treated Type 17 T cells secreted more Th17 signature cytokines. IL-17F and IL-22 levels secreted by Type 17 T cells during differentiation were assayed by ELISA (*P < 0.05, **P < 0.01). (d) CCK-8 assay was used to determine the cell viability of EL4 cells after treating them with different 8-074 concentrations. Representative data are shown from three independent experiments. […] Lymphoma EL4 cells were treated with various concentrations of 8-074 for 48 hours and analyzed by flow cytometry after Annexin V-FITC/PI staining. […] (h) The relative mRNA expression of Cd19 in B cells as determined by qPCR. […] (i) Relative mRNA expression of Il-1β levels in macrophages as determined by qPCR. ***P < 0.001. (j) Relative mRNA expression of Il-6 in macrophages as determined by qPCR. *P < 0.05. (k) Relative mRNA expression of Il-10 in macrophages as determined by qPCR. *P < 0.05. […]

Data set [3] deals with T1, hRORγt LBD (Homo sapiens, UniProt P51449).
T1 construct: expressed in transfected cells; host or cells: HEK293T
T1 sequence (P51449 269-508 limits assumed): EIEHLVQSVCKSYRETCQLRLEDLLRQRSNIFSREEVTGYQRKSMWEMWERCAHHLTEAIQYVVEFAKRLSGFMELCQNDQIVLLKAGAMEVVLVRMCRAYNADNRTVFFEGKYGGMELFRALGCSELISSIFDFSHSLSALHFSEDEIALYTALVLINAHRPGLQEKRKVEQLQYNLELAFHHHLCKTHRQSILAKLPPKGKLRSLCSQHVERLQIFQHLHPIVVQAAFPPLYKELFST
As to the kind of experiment: RORγt GAL4 cell-based reporter gene assay. The conditions noted are these: HEK293T host cells; read-out: EC50, RORγt agonist activity in Gal4 reporter gene assay. As for the experimental part: The hRORγt LBD coding sequence was inserted into a pBIND expression vector (Promega, E1581) to express the ROR-GAL4 binding domain chimeric receptors. This expression vector and a reporter vector (pGL4.35, which carries a stably integrated GAL4 promoter-driven luciferase reporter gene [luc2P/9XGAL4 UAS/Hygro]) were co-transfected into the HEK293T host cells. The assay was performed according to a previous study. EC50 of the sigmoidal fits were analyzed using Prism 5 and a four-parameter logistic fit equation, Y = bottom + (top–bottom) / (1 + 10(logEC50 − X) × hill slope). "X" is the log of compound concentration, and "Y" is the response, which increases as X increases. Y starts at "bottom" and goes to "top" with a sigmoid shape.
(In general: A reporter such as luciferase makes a cellular process visible.)

What is called EC50 is the concentration at which the effect is half-maximal. For `CCS(=O)(=O)c1ccc(CC(=O)Nc2ccc(-c3ccc(CC(C)C)c(C#N)c3)c(C(F)(F)F)c2)cc1` [8-074], the “cytotoxic killing activity of treated Tc17 cells” value in data set [1] is “significant increase”. Further, in data set [2], the “apoptosis in the tumor EL4 cells” value is given as “not observed” and the “cytotoxicity on tumor cells” value is “not observed”. Also, the EC50 in data set [3] was 119 nM.
